IC50 data for 29 compounds are collected here from US20060069110A1, “Substituted heterocyclic compounds and methods of use” (priority 2004, published 2006).

Structures are written as SMILES.

The test system of this assay is THP1 cells (LPS induced TNF release). Briefly: Lipopolysaccharide-Activated THP1 Cell TNF Production Assay. The following applies: Homo sapiens, THP-1; THP1 cells, bacterial LPS, secreted TNF-α after 3 h at 37° C.; read-out: IC50 values in the THP1 cell assay (LPS induced TNF release). The format is cell-based. Here is the method:
Lipopolysaccharide-Activated THP1 Cell TNF Production Assay
THP1 cells are resuspended in fresh THP1 media (RPMI 1640, 10% heat-inactivated FBS, 1×PGS, 1×NEAA, plus 30 μM βME) at a concentration of 1E6/mL. One hundred microliters of cells per well are plated in a polystyrene 96-well tissue culture. One microgram per mL of bacterial LPS is prepared in THP1 media and is transferred to the wells. Test compounds are dissolved in 100% DMSO and are serially diluted 3 fold in a polypropylene 96-well microtiter plate (drug plate). HI control and LO control wells contain only DMSO. One microliter of test compound from the drug plate followed by 10 μL of LPS are transferred to the cell plate. The treated cells are induced to synthesize and secrete TNF-α at 37° C. for 3 h. Forty microliters of conditioned media are transferred to a 96-well polypropylene plate containing 110 μL of ECL buffer (50 mM Tris-HCl pH 8.0, 100 mM NaCl, 0.05% Tween 20, 0.05% NaN3 and 1% FBS) supplemented with 0.44 nM MAB610 monoclonal Ab (R&D Systems), 0.34 nM ruthenylated AF210NA polyclonal Ab (R&D Systems) and 44 μg/mL sheep anti-mouse M280 Dynabeads (Dynal). After a 2 h incubation at RT with shaking, the reaction is read on the ECL M8 Instrument (IGEN Inc.). A low voltage is applied to the ruthenylated TNF-α immune complexes, which in the presence of TPA (the active component in Origlo), results in a cyclical redox reaction generating light at […]. The amount of secreted TNF-α in the presence of compound compared with that in the presence of DMSO vehicle alone (HI control) is calculated using the formula: % control (POC)=(cpd−average LO)/(average HI−average LO)*100. Data (consisting of POC and inhibitor concentration in μM) is fitted to a 4-parameter equation (y=A+((B−A)/(1+((×/C)ôD))), where A is the minimum y (POC) value, B is the maximum y (POC), C is the x (cpd concentration) at the point of inflection and D is the slope factor) using a Levenburg-Marquardt non-linear regression algorithm.

In the case of `CSc1nccc(Nc2cc(-c3ccccc3)c(=O)n(C)c2)n1` [1-methyl-5-((2-(methylsulfanyl)-4-pyrimidinyl)amino)-3-phenyl-2(1H)-pyridinone], the half-maximal inhibitory concentration (IC50) was ≤ 20 µM.

Take `CC(C)n1cc(N(C)c2ccnc(N[C@@H](C)Cc3cccc(CN)c3)n2)cc(-c2ccccc2)c1=O` [5-((2-(((1S)-2-(3-(aminomethyl)phenyl)-1-methylethyl)amino)-4-pyrimidinyl)(methyl)amino)-1-(1-methylethyl)-3-phenyl-2(1H)-pyridinone]: the IC50 is ≤ 20 µM.

As to `C[C@@H](Cc1cccc([C@@H](C)N)c1)Nc1nccc(N(C)c2c[nH]c(=O)c(-c3ccccc3)c2)n1` [5-((2-((S)-1-(3-((R)-1-Aminoethyl)phenyl)propan-2-ylamino)pyrimidin-4-yl)-(methyl)amino)-3-phenylpyridin-2(1H)-one], the IC50 was ≤ 20 µM.

Take `CN(c1ccnc(N[C@@H](CO)Cc2ccccc2)n1)c1ccnc(-c2ccccc2)n1` [(2R)-2-((4-(methyl(2-phenyl-4-pyrimidinyl)amino)-2-pyrimidinyl)amino)-3-phenyl-1-propanol]: the 50% inhibitory concentration (IC50) was ≤ 20 µM.

`CN(c1cc(-c2ccccc2)c(=O)n(C)c1)c1ccnc(N[C@@H](CC(=O)O)Cc2ccccc2)n1` [(3R)-3-((4-(methyl(1-methyl-6-oxo-5-phenyl-1,6-dihydro-3-pyridinyl)amino)-2-pyrimidinyl)amino)-4-phenylbutanoic acid]: the half-maximal inhibitory concentration (IC50) is ≤ 20 µM.

With `CN(c1ccnc(N[C@@H](CCO)Cc2ccccc2)n1)c1ccnc(-c2ccccc2)n1` [(3R)-3-((4-(methyl(2-phenyl-4-pyrimidinyl)amino)-2-pyrimidinyl)amino)-4-phenyl-1-butanol], the 50% inhibitory concentration (IC50) is ≤ 20 µM.

As for `CNC(=O)NCc1cccc(C[C@H](C)Nc2nccc(Nc3nc(-c4ccccc4)ncc3C(=O)NC)n2)c1` [(S)-1-(3-(2-(4-(5-(Methylcarbamoyl)-2-phenylpyrimidin-4-ylamino)pyrimidin-2-ylamino)propyl)benzyl)-3-methylurea], the IC50 was ≤ 20 µM.

On to `CNC(=O)c1cnc(-c2ccccc2)nc1Nc1ccnc(N[C@@H](C)Cc2cccc(CN)c2)n1` [(S)-4-(2-(1-(3-(aminomethyl)phenyl)-propan-2-ylamino)pyrimidin-4-ylamino)-N-methyl-2-phenylpyrimidine-5-carboxamide], for which the IC50 was ≤ 20 µM.

On to `C[C@@H](Cc1cccc(CNC(=O)OC(C)(C)C)c1)Nc1nccc(N(C)c2cc(-c3ccccc3)c(=O)n(C)c2)n1` [(S)-tert-Butyl-3-(2-(4-(methyl(1-methyl-6-oxo-5-phenyl-1,6-dihydro-pyridin-3-yl)amino)pyrimidin-2-ylamino)propyl)benzylcarbamate], for which the IC50 is ≤ 20 µM.

As for `C[C@@H](Cc1cccc([C@@H](C)N)c1)Nc1nccc(N(C)c2ccnc(-c3ccccc3)n2)n1` [Example 1, N^2-((S)-1-(3-((R)-1-Aminoethyl)phenyl)propan-2-yl)-N^4-methyl-N^4-(2-phenylpyrimidin-4-yl)pyrimidine-2,4-diamine], the IC50 was ≤ 20 µM.

With `C[C@H](Nc1nccc(N(C)c2ccnc(-c3ccccc3)n2)n1)c1ccc(CCN)cc1` [Example 3, (S)-N^2-(1-(4-(2-Aminoethyl)phenyl)ethyl)-N^4-methyl-N^4-(2-phenylpyrimidin-4-yl)pyrimidine-2,4-diamine], the concentration for half-maximal inhibition (IC50) is ≤ 20 µM.

Turning to `C[C@H](NC(=O)OC(C)(C)C)c1ccc(CCNc2nccc(N(C)c3ccnc(-c4ccccc4)n3)n2)cc1` [Example 4, (S)-tert-Butyl 1-(4-(2-(4-(methyl(2-phenylpyrimidin-4-yl)amino)pyrimidin-2-ylamino)ethyl)phenyl)ethyl carbamate], the IC50 was ≤ 20 µM.

As for `CN(c1ccnc(NC(C)(C)Cc2ccccc2)n1)c1ccnc(-c2ccccc2)n1` [Example 6, N^4-Methyl-N^2-(2-methyl-1-phenylpropan-2-yl)-N^4-(2-phenylpyrimidin-4-yl)pyrimidine-2,4-diamine], the concentration for half-maximal inhibition (IC50) is ≤ 20 µM.

For `C[C@@H](Cc1cccc(C2(N)CC2)c1)Nc1nccc(N(C)c2ccnc(-c3ccccc3)n2)n1` [Example 7, (S)-N^2-(1-(3-(1-Aminocyclopropyl)phenyl)propan-2-yl)-N^4-methyl-N^4-(2-phenylpyrimidin-4-yl)pyrimidine-2,4-diamine], the half-inhibitory concentration (IC50) was ≤ 20 µM.

For `C[C@@H](Cc1cccc(CN)c1)Nc1nccc(N(C)c2nc(N)cc(-c3ccccc3)n2)n1` [Example 8, (S)-N^4-(4-Amino-6-phenylpyrimidin-2-yl)-N^2-(1-(3-(aminomethyl)phenyl)propan-2-yl)-N^4-methylpyrimidine-2,4-diamine], the IC50 is ≤ 20 µM.

`C[C@H](Nc1nccc(N(C)c2ccnc(-c3ccccc3)n2)n1)[C@@H]1CCC[C@H](CCN)C1` [Example 10, N^2-((S)-((1R,3S)-3-(2-Aminoethyl)cyclohexyl)ethyl)-N^4-methyl-N^4-(2-phenylpyrimidin-4-yl)pyrimidine-2,4-diamine]: the IC50 was ≤ 20 µM.

Take `C[C@H](N)C1CCCC(CCNc2nccc(N(C)c3ccnc(-c4ccccc4)n3)n2)C1` (stereo partly drawn) [Example 12, N^2-(2-(3-((S)-1-Aminoethyl)cyclohexyl)ethyl)-N^4-methyl-N^4-(2-phenylpyrimidin-4-yl)pyrimidine-2,4-diamine]: the IC50 is ≤ 20 µM.

Regarding `CN(c1ccnc(N[C@H]2CC[C@H](N)CC2)n1)c1ccnc(-c2ccccc2)n1` [Example 13, N^2-((1r,4r)-4-Aminocyclohexyl)-N^4-methyl-N^4-(2-phenylpyrimidin-4-yl)pyrimidine-2,4-diamine], the IC50 was ≤ 20 µM.

With `CN(c1ccnc(NCCc2ccccc2Cl)n1)c1ccnc(-c2ccccc2)n1` [Example 14, N^2-(2-Chlorophenethyl)-N^4-methyl-N^4-(2-phenylpyrimidin-4-yl)pyrimidine-2,4-diamine], the IC50 was ≤ 20 µM.

As for `CN(c1ccnc(NCCc2cccnc2)n1)c1ccnc(-c2ccccc2)n1` [Example 15, N^4-Methyl-N^4-(2-phenylpyrimidin-4-yl)-N^2-(2-(pyridin-3-yl)ethyl)pyrimidine-2,4-diamine], the IC50 was ≤ 20 µM.

As to `CN(c1ccnc(NC2CCNCC2)n1)c1ccnc(-c2ccccc2)n1` [Example 16, N^4-Methyl-N^4-(2-phenylpyrimidin-4-yl)-N^2-(piperidin-4-yl)pyrimidine-2,4-diamine], the half-maximal inhibitory concentration (IC50) is ≤ 20 µM.

As to `C[C@H](Nc1nccc(N(C)c2ccnc(-c3ccccc3)n2)n1)c1cccc(CCC(=O)O)c1` [Example 18, (S)-3-(3-(1-(4-(Methyl(2-phenylpyrimidin-4-yl)amino)pyrimidin-2-ylamino)-ethyl)phenyl)propanoic acid], the IC50 was ≤ 20 µM.

Consider `C[C@H](Nc1nccc(N(C)c2ccnc(-c3ccccc3)n2)n1)c1cccc(CCN)c1` [Example 19, (S)-N^2-(1-(3-(2-Aminoethyl)phenyl)ethyl)-N^4-methyl-N^4-(2-phenylpyrimidin-4-yl)pyrimidine-2,4-diamine], for which the concentration for half-maximal inhibition (IC50) was ≤ 20 µM.

In the case of `C[C@H](NC(=O)OC(C)(C)C)c1cccc(CCNc2nccc(N(C)c3ccnc(-c4ccccc4)n3)n2)c1` [Example 20, (S)-tert-Butyl 1-(3-(2-(4-(methyl(2-phenylpyrimidin-4-yl)amino)pyrimidin-2-yl-amino)ethyl)phenyl)ethylcarbamate], the IC50 was ≤ 20 µM.

Take `C[C@H](N)c1cccc(CCNc2nccc(N(C)c3ccnc(-c4ccccc4)n3)n2)c1` [Example 21, (S)-N^2-(3-(1-Aminoethyl)phenethyl)-N^4-methyl-N^4-(2-phenylpyrimidin-4-yl)-pyrimidine-2,4-diamine]: the half-maximal inhibitory concentration (IC50) is ≤ 20 µM.

With `CC(=O)N1CCC(Nc2nccc(N(C)c3ccnc(-c4ccccc4)n3)n2)CC1` [Example 22, 1-(4-(4-(Methyl(2-phenylpyrimidin-4-yl)amino)pyrimidin-2-ylamino)piperidin-1-yl)ethanone], the IC50 was ≤ 20 µM.

As to `C[C@H](N)C(=O)N1CCC(Nc2nccc(N(C)c3ccnc(-c4ccccc4)n3)n2)CC1` [Example 23], the IC50 is ≤ 20 µM.

Take `CC(=O)N[C@H]1CC[C@H](Nc2nccc(N(C)c3ccnc(-c4ccccc4)n3)n2)CC1` [Example 24, N-(4-(4-(Methyl(2-phenylpyrimidin-4-yl)amino)pyrimidin-2-ylamino)cyclohexyl)-acetamide]: the IC50 is ≤ 20 µM.

On to `C[C@H](N)C(=O)N[C@H]1CC[C@H](Nc2nccc(N(C)c3ccnc(-c4ccccc4)n3)n2)CC1` [Example 25, (S)-2-Amino-N-(4-(4-(methyl(2-phenylpyrimidin-4-yl)amino)pyrimidin-2-ylamino)cyclohexyl)propanamide], for which the 50% inhibitory concentration (IC50) is ≤ 20 µM.

By IC50 is commonly meant the concentration needed to halve the response being measured.
